Structures can show the parent of a compound that is named as a salt.
Each compound was assayed against Active Human ERK2 (hERK2) (Homo sapiens (Human), UniProt P28482) (assay: Active Human ERK2 (hERK2) Activity Assay (IMAP-FP)). Conditions: phosphorylated active hERK2, 30 μM ATP; average; read-out: ERK 2 Human average IC50.
Assay type: biochemical
Method in brief: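 Phosphorylation by activated human ERK2 (0.5 nM) at 30 μM ATP, peptide substrate 900 nM unlabeled with 80 nM labeled, proceeds 60 min. IMAP beads stop the reaction; after 60 min equilibration, product is measured by fluorescence polarization.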

Chain of Active Human ERK2 (hERK2) (P28482 whole entry): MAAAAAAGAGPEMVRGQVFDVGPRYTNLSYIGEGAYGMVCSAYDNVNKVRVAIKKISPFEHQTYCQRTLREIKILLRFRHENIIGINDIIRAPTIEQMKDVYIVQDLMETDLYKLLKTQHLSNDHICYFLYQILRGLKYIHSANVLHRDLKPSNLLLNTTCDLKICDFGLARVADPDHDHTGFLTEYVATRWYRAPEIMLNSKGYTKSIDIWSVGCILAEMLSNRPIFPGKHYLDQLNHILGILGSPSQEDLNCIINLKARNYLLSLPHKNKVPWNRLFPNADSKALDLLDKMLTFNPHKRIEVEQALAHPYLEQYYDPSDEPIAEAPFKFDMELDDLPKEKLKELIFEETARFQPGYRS

IC50 | Structure (SMILES)
84.3 nM | O=C(NCC1CC1)Nc1cc2[nH]nc(C3CC3)c2cn1 [Example 148]
0.29 nM | Cc1cc(-c2n[nH]c3cc(NC(=O)N[C@H](CN(C)C)c4ccccc4)ncc23)ccn1 [Example 482]
6.03 nM | COCCOC[C@@H](NC(=O)Nc1cc2[nH]nc(C(F)F)c2cn1)c1ccccc1 [Example 694]
1.36 nM | Cc1cc(-c2n[nH]c3cc(NC(=O)NCc4ncc[nH]4)ncc23)ccn1 [Example 427]
0.546 nM | CCOc1ncccc1CNC(=O)Nc1cc2[nH]nc(-c3ccnc(C)c3)c2cn1 [Example 526]
10.8 nM | Cc1cc(-c2n[nH]c3cc(NC(=O)N[C@@H](CN(C)C)c4ccccc4)ncc23)ccn1 [Example 481]
0.383 nM | C[C@@H](NC(=O)Nc1cc2[nH]nc(-c3cc[n+]([O-])cc3)c2cn1)c1ccccc1 [Example 93, 1-[3-(1-oxidopyridin-4-yl)-1H-pyrazolo[4,3-c]pyridin-6-yl]-3-[(1R)-1-phenylethyl]urea]
19 nM | C[C@@H](NC(=O)Nc1cc2[nH]nc(C(=O)NCC(F)(F)CN3CCCC3)c2cn1)c1ccccc1 [Example 128]
5.18 nM | CNC(=O)c1cc(F)ccc1CNC(=O)Nc1cc2[nH]nc(-c3ccnc(C)c3)c2cn1 [Example 518]
41 nM | Cc1cc(-c2n[nH]c3cc(NC(=O)N[C@@H](C)c4ccccn4)ncc23)ccn1 [Example 176]
0.699 nM | Cc1cc(-c2n[nH]c3cc(NC(=O)N[C@H](C)c4ncccc4F)ncc23)ccn1 [Example 232]
2.74 nM | Cc1cc(-c2n[nH]c3cc(NC(=O)NCc4ccc5ccccc5c4)ncc23)ccn1 [Example 45, 1-[3-(2-methylpyridin-4-yl)-1H-pyrazolo[4,3-c]pyridin-6-yl]-3-(naphthalen-2-ylmethyl)urea]
9.83 nM | Cc1cc(-c2n[nH]c3cc(NC(=O)N[C@@H](c4ccc(F)cc4)C(F)(F)F)ncc23)ccn1 [Example 280]
1.51 nM | Cc1cc(-c2n[nH]c3cc(NC(=O)NC(c4ccccc4)C(F)F)ncc23)ccn1 (stereo not shown) [Example 379]
1.84 nM | CN1CC[C@@H](NC(=O)Nc2cc3[nH]nc(-c4ccc(F)cc4)c3cn2)C1 [Example 316]
0.581 nM | C[C@@H](NC(=O)Nc1cc2[nH]nc(-c3ccc4nncn4c3)c2cn1)c1ccc(F)cc1 [Example 246]
0.914 nM | Cc1cc(-c2n[nH]c3cc(NC(=O)N[C@H](C)c4ccccn4)ncc23)ccn1 [Example 177]
1.55 nM | C[C@@H](NC(=O)Nc1cc2[nH]nc(-c3cccc(C#N)c3)c2cn1)c1ccccc1 [Example 672]
2.19 nM | C[C@@H](NC(=O)Nc1cc2[nH]nc(-c3ccn(C)n3)c2cn1)c1ccccc1 [Example 90, 1-[3-(1-methyl-1H-pyrazol-3-yl)-1H-pyrazolo[4,3-c]pyridin-6-yl]-3-[(1R)-1-phenylethyl]urea]
3.6 nM | C[C@@H](NC(=O)Nc1cc2[nH]nc(-c3cnoc3)c2cn1)c1ccccc1 [Example 640]
55.6 nM | Cc1cc(-c2n[nH]c3cc(NC(=O)NC(CCN4CCCC4)c4ccncc4)ncc23)ccn1 (stereo not shown) [Example 378]
1.56 nM | Cc1cc(-c2n[nH]c3cc(NC(=O)NC(CCN(C)C)c4ccccn4)ncc23)ccn1 (stereo not shown) [Example 353]
17.4 nM | O=C(NCc1ccccc1)Nc1cc2[nH]nc(C3CC3)c2cn1 [Example 142]

IC50 | Structure (SMILES)
3.15 nM | CCC(NC(=O)Nc1cc2[nH]nc(-c3ccnc(C)c3)c2cn1)c1ccc(Cl)cc1 (stereo not shown) [Example 344]
32.4 nM | Cc1cc(-c2n[nH]c3cc(NC(=O)N[C@H](C)c4ccccc4)ncc23)no1 [Example 682]
211 nM | C[C@@H](NC(=O)Nc1cc2[nH]nc(C(=O)NCC3(N(C)C)CCC3)c2cn1)c1ccccc1 [Example 119]
4.94 nM | Cc1cc(-c2n[nH]c3cc(NC(=O)NCC(c4ccccc4)N4CCCCC4)ncc23)ccn1 (stereo not shown) [Example 386]
0.603 nM | Cc1cc(-c2n[nH]c3cc(NC(=O)NC(CO)c4cc(F)cc(F)c4)ncc23)ccn1 (stereo not shown) [Example 365]
24.2 nM | COCC(NC(=O)Nc1cc2[nH]nc(-c3ccnc(C)c3)c2cn1)c1ccc(C(F)(F)F)cn1 (stereo not shown) [Example 240]
327 nM | COC(=O)C1CC1c1n[nH]c2cc(NC(=O)N[C@H](C)c3ccccc3)ncc12 (stereo partly shown) [Example 642]
1.54 nM | O=C(NCC1CCC1)Nc1cc2[nH]nc(-c3ccnc(F)c3)c2cn1 [Example 591]
0.8 nM | COCCNC(=O)Nc1cc2[nH]nc(-c3ccc4nn(C)cc4c3)c2cn1 [Example 626]
11.1 nM | C[C@@H](NC(=O)Nc1cc2[nH]nc(C3CCC3)c2cn1)c1ccc(Cl)cc1 [Example 151]
7.68 nM | COCc1n[nH]c2cc(NC(=O)N[C@H](C)c3ccccc3)ncc12 [Example 599]
56 nM | CC1CC(c2n[nH]c3cc(NC(=O)N[C@H](C)c4ccccc4)ncc23)=NO1 (stereo partly shown) [Example 687]
723 nM | Cc1cc(-c2n[nH]c3cc(NC(=O)N[C@@H](C)c4ccc(Cl)c(C)c4)ncc23)ccn1 [Example 340]
193 nM | C[C@@H](NC(=O)Nc1cc2[nH]nc(C(C)(F)F)c2cn1)c1ccc(F)cc1 [Example 665]
0.326 nM | COC[C@@H](NC(=O)Nc1cc2[nH]nc(-c3ccnc(C4CC4)c3)c2cn1)c1ccccc1 [Example 605]
3.78 nM | C[C@@H](NC(=O)Nc1cc2[nH]nc(-c3ccc(F)cc3)c2cn1)C1CCCCC1 [Example 594]
3.63 nM | CC(C)Oc1ccc(-c2n[nH]c3cc(NC(=O)N[C@H](C)c4ccccc4)ncc23)cn1 [Example 28, 1-{3-[6-(1-methylethoxy)pyridin-3-yl]-1H-pyrazolo[4,3-c]pyridin-6-yl}-3-[(1R)-1-phenylethyl]urea]
0.251 nM | Cn1cc(-c2n[nH]c3cc(NC(=O)NCc4ccc(F)c(Cl)c4)ncc23)cn1 [Example 60, 1-(3-chloro-4-fluorobenzyl)-3-[3-(1-methyl-1H-pyrazol-4-yl)-1H-pyrazolo[4,3-c]pyridin-6-yl]urea]
1.95 nM | Cc1cc(-c2n[nH]c3cc(NC(=O)NCc4cnoc4)ncc23)ccn1 [Example 437]
6.16 nM | C[C@@H](NC(=O)Nc1cc2[nH]nc(CO)c2cn1)c1ccccc1 [Example 615]
520 nM | COC(=O)[C@H](C)NC(=O)Nc1cc2[nH]nc(-c3ccnc(C)c3)c2cn1 [Example 455]
1.14 nM | Cc1cc(-c2n[nH]c3c(F)c(NC(=O)NCc4ccccc4)ncc23)ccn1 [Example 536]
12 nM | CCOC[C@@H](NC(=O)Nc1cc2[nH]nc(C(F)F)c2cn1)c1ccccc1 [Example 692]

IC50 | Structure (SMILES)
3.81 nM | Cc1cc(-c2n[nH]c3cc(NC(=O)NCC(F)(F)CO)ncc23)ccn1 [Example 190]
320 nM | Cc1cc(-c2n[nH]c3cc(NC(=O)NC4COC4)ncc23)ccn1 [Example 465]
32.6 nM | Cc1cc(-c2n[nH]c3cc(NC(=O)NC(C)(C)C)ncc23)ccn1 [Example 36, 1-tert-butyl-3-[3-(2-methylpyridin-4-yl)-1H-pyrazolo[4,3-c]pyridin-6-yl]urea]
11.9 nM | Cc1cc(-c2n[nH]c3cc(NC(=S)NCc4ccccc4)ncc23)ccn1 [Example 94, 6-[(benzylcarbamothioyl)amino]-3-(2-methylpyridin-4-yl)-1H-pyrazolo[4,3-c]pyridin-5-ium trifluoroacetate]
4.34 nM | COC[C@H](Cc1ccccc1)NC(=O)Nc1cc2[nH]nc(-c3ccnc(C)c3)c2cn1 [Example 494]
44.5 nM | CC(C)CN(C)c1ncc(-c2n[nH]c3cc(NC(=O)N[C@H](C)c4ccc(F)cc4)ncc23)cn1 [Example 309]
4.48 nM | Cc1cc(-c2n[nH]c3cc(NC(=O)NC(C4CC4)C(F)(F)F)ncc23)ccn1 (stereo not shown) [Example 41, 1-(1-cyclopropyl-2,2,2-trifluoroethyl)-3-[3-(2-methylpyridin-4-yl)-1H-pyrazolo[4,3-c]pyridin-6-yl]urea]
0.945 nM | CO[C@@H](C)CNC(=O)Nc1cc2[nH]nc(-c3ccnc(C)c3)c2cn1 [Example 597]
113 nM | Cc1cc(-c2n[nH]c3cc(NC(=O)N[C@H](c4ccc(F)cc4)C(F)(F)F)ncc23)ccn1 [Example 279]
0.307 nM | COc1cccc(F)c1CNC(=O)Nc1cc2[nH]nc(-c3ccnc(C)c3)c2cn1 [Example 485]
9.9 nM | Cc1cc(-c2n[nH]c3cc(NC(=O)NCC4(O)CC4)ncc23)ccn1 [Example 37]
25.8 nM | CC(CNC(=O)Nc1cc2[nH]nc(-c3ccc(F)cc3)c2cn1)N(C)C (stereo not shown) [Example 227]
137 nM | Cc1cc(-c2n[nH]c3cc(NC(=O)NC4(c5ccccn5)CCCC4)ncc23)ccn1 [Example 358]
1.38 nM | COC[C@@H](NC(=O)Nc1cc2[nH]nc(C3CC3)c2cn1)c1ccccc1 [Example 160]
21.4 nM | O=C(Nc1cc2[nH]nc(C(F)F)c2cn1)N[C@H](COCC1CC1)c1ccccc1 [Example 693]
13.5 nM | Cc1cc(-c2n[nH]c3cc(NC(=O)NC(CO)C(F)(F)F)ncc23)ccn1 (stereo not shown) [Example 194]
0.783 nM | C[C@@H](NC(=O)Nc1cc2[nH]nc(-c3ccc(N4CCOCC4)nc3)c2cn1)c1ccc(F)cc1 [Example 255]
4.12 nM | Cc1cc(-c2n[nH]c3cc(NC(=O)NCc4cc(C)on4)ncc23)ccn1 [Example 470]
3.28 nM | C[C@@H](NC(=O)Nc1cc2[nH]nc(-c3ccc(C#N)cc3)c2cn1)c1ccc(F)cc1 [Example 83, 1-[3-(4-cyanophenyl)-1H-pyrazolo[4,3-c]pyridin-6-yl]-3-[(1R)-1-(4-fluorophenyl)ethyl]urea]
6.73 nM | Cc1cc(-c2n[nH]c3cc(NC(=O)N[C@H]4CN(C)C[C@@H]4C4CCCCC4)ncc23)ccn1 [Example 208]
1.93 nM | COCCNC(=O)Nc1cc2[nH]nc(-c3ccc(F)cc3)c2cn1 [Example 623, 1-[3-(4-Fluorophenyl)-1H-pyrazolo[4,3-c]pyridin-6-yl]-3-(2-methoxyethyl)urea]
3.42 nM | Cc1cc(-c2n[nH]c3cc(NC(=O)N[C@H](C)Cc4ccccc4)ncc23)ccn1 [Example 606]

Same assay, conditions: read-out: AERK2 IC50 (Active human ERK2 Activity Assay)

IC50 | Structure (SMILES)
0.2 to 1.7 nM | C[C@@H](NC(=O)Nc1cc2[nH]nc(-c3cc[n+]([O-])cc3)c2cn1)c1ccccc1 [Example 93, 1-[3-(1-oxidopyridin-4-yl)-1H-pyrazolo[4,3-c]pyridin-6-yl]-3-[(1R)-1-phenylethyl]urea]
0.2 to 1.7 nM | Cn1cc(-c2n[nH]c3cc(NC(=O)NCc4ccc(F)c(Cl)c4)ncc23)cn1 [Example 60, 1-(3-chloro-4-fluorobenzyl)-3-[3-(1-methyl-1H-pyrazol-4-yl)-1H-pyrazolo[4,3-c]pyridin-6-yl]urea]
